Numbering of substitutions follows the chain as printed. Where a name gives a salt, the structure may show the parent alone. Read-outs that look alike come from different tables or passages of the source.
What was measured:
CRISP2^N97P L98G = molecular target: T1, CRISP2^N97P L98G (Homo sapiens, UniProt P16562, L98G/N97P); experiment: MST binding to CRISP2 double mutant N97P L98G; set-up: species or system mammalian; settings: absence of PSP94, read-out: Kd, sterol binding by CRISP2^N97P L98G
T1 construct: made in house; host or cells: E. coli
T1 sequence (P16562 22-243 N97P/L98G): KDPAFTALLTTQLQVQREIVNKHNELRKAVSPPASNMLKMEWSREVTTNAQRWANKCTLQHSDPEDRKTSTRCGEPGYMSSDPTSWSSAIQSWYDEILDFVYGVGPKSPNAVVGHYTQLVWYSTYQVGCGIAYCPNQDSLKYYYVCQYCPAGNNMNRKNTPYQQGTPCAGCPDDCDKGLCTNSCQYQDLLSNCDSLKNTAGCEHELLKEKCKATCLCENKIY
Procedure: (§1) Next, we generated all three double mutant combinations of CRISP2: N97P L98G, N97P Y99P, and L98G Y99P. These three double mutant versions of CRISP2 were again expressed as His-tagged proteins in E. coli and purified, and their capacity to bind sterols in the presence or absence of PSP94 was assessed by MST. […] The capacity of the CRISP2^L98G Y99P double mutant to bind sterols even in the presence of PSP94 was confirmed by the in vivo sterol export assay (Fig. 6, A and B). When expressed in yeast cells, the CRISP2^L98G Y99P double mutant was stably expressed and secreted as monitored by Western blotting (Fig. 6C).
MST experiments were performed to assess protein–protein, protein–lipid, and protein–calcium interactions using a Monolith NT.115 (Nanotemper Technologies). Proteins were labeled using the RED-tris-NTA His tag protein labeling kit. Labeled CAP proteins, 100 nM, were mixed with a serial dilution of unlabeled PSP94, PSP9^F24G, cholesterol sulfate, or calcium chloride, prepared in binding buffer (20 mM Tris pH 7.5, 30 mM NaCl, 0.05% Triton X-100). Samples were loaded into MST standard capillaries, and MST measurements were performed using an 80% laser power setting. The dissociation constant Kd was obtained by plotting the normalized fluorescence (Fnorm) against the logarithm of ligand concentration. […]

Pry1 = molecular target: T2, Pry1 (Saccharomyces cerevisiae, UniProt P47032); experiment: Microscale thermophoresis (MST) binding to Pry1; settings: absence of PSP94, read-out: Kd, sterol binding by Pry1
T2 construct: made in house; host or cells: E. coli BL21
T2 sequence (P47032 20-299): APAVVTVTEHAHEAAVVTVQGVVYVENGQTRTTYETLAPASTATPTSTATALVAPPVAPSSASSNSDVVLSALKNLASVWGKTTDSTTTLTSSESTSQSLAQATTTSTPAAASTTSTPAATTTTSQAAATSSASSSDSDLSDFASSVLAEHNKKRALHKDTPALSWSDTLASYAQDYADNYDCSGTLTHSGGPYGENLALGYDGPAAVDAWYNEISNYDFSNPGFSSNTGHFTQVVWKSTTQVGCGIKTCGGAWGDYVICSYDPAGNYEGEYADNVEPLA
Excerpt: To confirm the direct interaction of PSP94 with CRISP3 and to test whether PSP94 would also bind other CAP family members such as yeast Pry1, or CRISP2, we performed in vitro protein binding assay using microscale thermophoresis (MST). Therefore, PSP94 and the CAP family members, Pry1, CRISP2, and CRISP3, were expressed as fusion proteins with a C-terminal polyhistidine tag in Escherichia coli, and the proteins were affinity purified on nickel-NTA agarose beads. The purified CAP proteins were then fluorescently labeled using RED-tris-NTA and incubated with varying concentrations of PSP94. […] PSP94 thus has high binding affinity for all three CAP proteins tested, and it also binds the CAP domain of Pry1 (Pry1^CAP) alone.
DNA encoding proteins of interest were PCR amplified and cloned into NcoI and XhoI restriction sites of pET22b, which contains a PelB signal sequence to direct the secretion of expressed protein into the periplasmic space. […] Protein concentration was determined by Lowry assay using the Folin reagent and bovine serum albumin as protein standard.
MST experiments were performed to assess protein–protein, protein–lipid, and protein–calcium interactions using a Monolith NT.115 (Nanotemper Technologies). […] The dissociation constant Kd was obtained by plotting the normalized fluorescence (Fnorm) against the logarithm of ligand concentration. […]

CRISP2^L98G Y99P = molecular target: T3, CRISP2^L98G Y99P (Homo sapiens, UniProt P16562, L98G/Y99P); experiment: MST binding to CRISP2 double mutant L98G Y99P; set-up: species or system mammalian
T3 construct: made in house; host or cells: E. coli
T3 sequence (P16562 22-243 L98G/Y99P): T1 sequence (P16562 22-243 N97P/L98G) with P76N, Y78P
Procedure: as §1
MST experiments were performed to assess protein–protein, protein–lipid, and protein–calcium interactions using a Monolith NT.115 (Nanotemper Technologies). Proteins were labeled using the RED-tris-NTA His tag protein labeling kit. Labeled CAP proteins, 100 nM, were mixed with a serial dilution of unlabeled PSP94, PSP9^F24G, cholesterol sulfate, or calcium chloride, prepared in binding buffer (20 mM Tris pH 7.5, 30 mM NaCl, 0.05% Triton X-100). Samples were loaded into MST standard capillaries, and MST measurements were performed using an 80% laser power setting. The dissociation constant Kd was obtained by plotting the normalized fluorescence (Fnorm) against the logarithm of ligand concentration. Experiments were performed in triplicates, and data were fitted using the Kd model of the MO.Affinity Analysis software (Nanotemper Technologies). For binding inhibition studies, CAP proteins and PSP94 were preincubated for 5 min at 24 °C before performing binding studies with cholesterol sulfate.

`CC(C)CCC[C@@H](C)[C@H]1CC[C@H]2[C@@H]3CC=C4C[C@@H](OS(=O)(=O)O)CC[C@]4(C)[C@H]3CC[C@]12C` [cholesterol sulfate] gave a Kd (CRISP2^N97P L98G) of 3.8 ± 1.9 µM, a Kd (Pry1) of 3 ± 1.7 µM and a Kd (CRISP2^L98G Y99P; +PSP94, read-out: Kd, sterol binding by CRISP2^L98G Y99P in presence of PSP94) of 0.5 µM. It also gave a Kd (CRISP2^L98G Y99P; PSP94^F24G preincubated 5 min at 24 °C, read-out: Kd, sterol binding by CRISP2^L98G Y99P in presence of PSP94^F24G) of 4.5 ± 2.08 µM and a Kd (CRISP2^L98G Y99P; absence of PSP94, read-out: Kd, sterol binding by CRISP2^L98G Y99P) of 2.2 ± 1.7 µM.
